Results taken from PubChem BioAssay (NCI).
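GI50: concentration for 50% inhibition of growth. Definition used: TGI = concentration required for complete inhibition of growth.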 Numbered stars: 1 amine (or outer) side, 2 acyl side, 3 side chain; on linkers, the order of the positions; unused ones are H or OH. Bridge positions count the residues as written; N and C are the ends. Square brackets hold non-standard residues; d marks the D form. Peptide text beside a SMILES is read from it. I, II: the chains in the order shown. Actinocin(9to1) = Cc1c2oc3c(C)ccc(C(=O)[*:1])c3nc-2c(C(=O)[*:2])c(N)c1=O; aThr = C[C@H](O)[C@H](N)C(=O)O; NMeV = CN[C@H](C(=O)O)C(C)C; Sar = CNCC(=O)O

What was measured:
Test in all cases: NCI-60 cell line screen, 384-well format
OVCAR-4 ovarian = tested on: OVCAR-4 ovarian
NCI/ADR-RES ovarian = tested on: NCI/ADR-RES ovarian
IGROV1 ovarian = tested on: IGROV1 ovarian
786-0 renal = tested on: 786-0 renal
UO-31 renal = tested on: UO-31 renal
ACHN renal = tested on: ACHN renal
A549 NSCLC = tested on: A549 NSCLC
HCT-15 colon = tested on: HCT-15 colon
PC-3 prostate = tested on: PC-3 prostate
M14 melanoma = tested on: M14 melanoma
EKVX NSCLC = tested on: EKVX NSCLC
A498 renal = tested on: A498 renal
SW-620 colon = tested on: SW-620 colon

`Cc1c2oc3c(C)ccc(C(=O)N[C@@H]4C(=O)N[C@H](C(C)C)C(=O)N5CCC[C@H]5C(=O)N(C)CC(=O)N(C)[C@@H](C(C)C)C(=O)O[C@H]4C)c3nc-2c(C(=O)N[C@@H]2C(=O)N[C@H](C(C)C)C(=O)N3CCC[C@H]3C(=O)N(C)CC(=O)N(C)[C@@H](C(C)C)C(=O)O[C@H]2C)c(N)c1=O` (I: [aThr][dV]P[Sar][NMeV] / II: [aThr][dV]P[Sar][NMeV]; ester I:1-I:C, II:1-II:C; linker I:N-II:N via Actinocin(9to1)) showed a TGI (OVCAR-4 ovarian) of under 26.6 nM, a GI50 (NCI/ADR-RES ovarian) of 571 nM and a TGI (NCI/ADR-RES ovarian) of 2830 nM. The TGI (IGROV1 ovarian) was 13.8 nM, the TGI (786-0 renal) was 18.8 nM and the GI50 (UO-31 renal) was under 11.9 nM. For the same molecule, the TGI (UO-31 renal) was 26.8 nM, the TGI (ACHN renal) was 16.5 nM and the TGI (A549 NSCLC) was 1370 nM. For the same molecule, the TGI (HCT-15 colon) was 69 nM, the TGI (PC-3 prostate) was 57.1 nM and the TGI (M14 melanoma) was under 11.2 nM. The TGI (EKVX NSCLC) was 43.5 nM, the TGI (A498 renal) was under 16.5 nM and the TGI (SW-620 colon) was under 35.1 nM.
